Read-outs that look alike come from different tables or passages of the source.
Molecular target: NR1/NR2A (Homo sapiens (Human), UniProt Q05586+Q12879)
Assay: FDSS Ca2+ influx inhibition assay in HEK293 cells expressing NR1/NR2A
Format: cell-based
Details: 3 μM glutamate, 3 μM glycine, 1 mM Ca2+
In short: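 Fluo-8-loaded HEK293 NR1/NR2A cells preincubated 10 min with compound at 10 μM final (0.1% DMSO) in Ca2+/Mg2+-free HBSS with 20 mM HEPES. Stimulated with 3 μM glutamate, 3 μM glycine, 1 mM Ca2+; FDSS recording for 3 min, end/baseline fluorescence ratio compared with MK801.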

[1] = inhibition relative to MK801, read-out: NR2A IC50

Sequence of NR1/NR2A (Q12879 23-1464, other chains not shown): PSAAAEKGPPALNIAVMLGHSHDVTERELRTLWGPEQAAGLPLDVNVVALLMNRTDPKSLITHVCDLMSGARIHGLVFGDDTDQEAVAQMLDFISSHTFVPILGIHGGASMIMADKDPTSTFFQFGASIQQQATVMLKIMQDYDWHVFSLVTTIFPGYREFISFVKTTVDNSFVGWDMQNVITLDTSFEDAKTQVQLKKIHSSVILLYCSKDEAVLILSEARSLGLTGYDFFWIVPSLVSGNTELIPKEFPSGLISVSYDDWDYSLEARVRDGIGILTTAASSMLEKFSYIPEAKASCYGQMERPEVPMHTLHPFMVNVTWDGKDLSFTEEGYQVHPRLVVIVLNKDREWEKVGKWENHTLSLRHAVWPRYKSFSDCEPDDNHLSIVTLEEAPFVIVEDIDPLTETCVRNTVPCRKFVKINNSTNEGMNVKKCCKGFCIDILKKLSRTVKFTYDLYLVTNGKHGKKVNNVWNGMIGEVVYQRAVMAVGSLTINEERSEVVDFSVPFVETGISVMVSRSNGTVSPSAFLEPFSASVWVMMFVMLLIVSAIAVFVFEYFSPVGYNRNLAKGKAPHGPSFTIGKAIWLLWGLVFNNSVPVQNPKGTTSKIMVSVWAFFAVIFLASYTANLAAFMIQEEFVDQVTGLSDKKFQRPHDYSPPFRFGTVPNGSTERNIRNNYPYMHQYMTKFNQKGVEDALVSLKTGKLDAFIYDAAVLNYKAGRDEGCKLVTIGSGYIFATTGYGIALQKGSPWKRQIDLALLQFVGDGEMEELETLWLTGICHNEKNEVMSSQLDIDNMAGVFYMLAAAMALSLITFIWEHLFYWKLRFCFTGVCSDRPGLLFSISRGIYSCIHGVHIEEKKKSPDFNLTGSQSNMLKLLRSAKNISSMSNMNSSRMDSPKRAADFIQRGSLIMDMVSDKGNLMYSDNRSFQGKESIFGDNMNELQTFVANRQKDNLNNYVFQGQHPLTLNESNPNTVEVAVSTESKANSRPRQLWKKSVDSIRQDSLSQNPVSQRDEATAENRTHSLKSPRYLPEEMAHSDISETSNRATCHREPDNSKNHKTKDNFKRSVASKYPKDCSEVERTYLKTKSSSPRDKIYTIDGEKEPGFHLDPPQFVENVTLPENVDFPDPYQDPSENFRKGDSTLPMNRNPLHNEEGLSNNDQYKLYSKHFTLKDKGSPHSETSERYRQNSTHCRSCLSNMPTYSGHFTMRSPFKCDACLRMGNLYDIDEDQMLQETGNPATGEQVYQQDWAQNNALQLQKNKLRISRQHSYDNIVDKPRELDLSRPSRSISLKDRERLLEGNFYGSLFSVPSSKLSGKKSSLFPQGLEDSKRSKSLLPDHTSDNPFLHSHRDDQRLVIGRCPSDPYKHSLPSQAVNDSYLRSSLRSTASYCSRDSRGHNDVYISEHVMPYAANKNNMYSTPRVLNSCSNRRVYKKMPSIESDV

SMILES | IC50 [1] [µM] | IC50 (read-out: Binned Activity) [µM]
O=C(NCc1ncccn1)c1ccc(CNS(=O)(=O)c2ccc(F)c(Cl)c2)nc1 [6-(3-chloro-4-fluorobenzenesulfon-amidomethyl)-N-(pyrimidin-2-ylmethyl)pyridine-3-carboxamide] | 10 | > 10
O=C(NCc1ccncn1)c1ccc(CNS(=O)(=O)c2ccc(F)c(Cl)c2)nn1 [6-(3-chloro-4-fluorobenzenesulfon-amidomethyl)-N-(pyrimidin-4-ylmethyl)pyridazine-3-carboxamide] | 10 | > 10
O=C(NCc1ccncn1)c1ccc(CNS(=O)(=O)c2ccc(F)c(Cl)c2)nc1 [6-(3-chloro-4-fluorobenzenesulfon-amidomethyl)-N-(pyrimidin-4-ylmethyl)pyridine-3-carboxamide] | 10 | > 10
O=C(NCc1cncnc1)c1ccc(CNS(=O)(=O)c2ccc(F)c(Cl)c2)nn1 [6-(3-chloro-4-fluorobenzenesulfon-amidomethyl)-N-(pyrimidin-5-ylmethyl)pyridazine-3-carboxamide] | 10 | > 10
O=C(NCc1cncnc1)c1ccc(CNS(=O)(=O)c2ccc(F)c(Cl)c2)nc1 [6-(3-chloro-4-fluorobenzenesulfon-amidomethyl)-N-(pyrimidin-5-ylmethyl)pyridine-3-carboxamide] | 10 | > 10
O=C(NCc1cccs1)c1ccc(CNS(=O)(=O)c2ccc(F)c(Cl)c2)nn1 [6-(3-chloro-4-fluorobenzenesulfon-amidomethyl)-N-(thiophen-2-ylmethyl)pyridazine-3-carboxamide] | 10 | > 10
CC(NC(=O)c1ccc(CNS(=O)(=O)c2ccc(F)c(Cl)c2)nn1)c1ccco1 (stereo not shown) [6-(3-chloro-4-fluorobenzenesulfon-amidomethyl)-N-[1-(furan-2-yl)ethyl]pyridazine-3-carboxamide] | 10 | > 10
CC(NC(=O)c1ccc(CNS(=O)(=O)c2ccc(F)c(Cl)c2)nn1)c1cccs1 (stereo not shown) [6-(3-chloro-4-fluorobenzenesulfon-amidomethyl)-N-[1-(thiophen-2-yl)ethyl]pyridazine-3-carboxamide] | 10 | > 10
COc1ccc(CCNC(=O)c2ccc(CNS(=O)(=O)c3ccc(F)c(Cl)c3)nn2)cc1 [6-(3-chloro-4-fluorobenzenesulfon-amidomethyl)-N-[2-(4-methoxyphenyl)ethyl] pyridazine-3-carboxamide] | 10 | > 10
CN(C)CCNC(=O)c1ccc(CNS(=O)(=O)c2ccc(F)c(Cl)c2)nc1 [6-(3-chloro-4-fluorobenzenesulfon-amidomethyl)-N-[2-(dimethylamino)ethyl] pyridine-3-carboxamide] | 10 | > 10
CN(C)CCCNC(=O)c1ccc(CNS(=O)(=O)c2ccc(F)c(Cl)c2)nc1 [6-(3-chloro-4-fluorobenzenesulfon-amidomethyl)-N-[3-(dimethylamino)propyl] pyridine-3-carboxamide] | 10 | > 10
CN(C)CCCCNC(=O)c1ccc(CNS(=O)(=O)c2ccc(F)c(Cl)c2)nc1 [6-(3-chloro-4-fluorobenzenesulfon-amidomethyl)-N-[4-(dimethylamino)butyl] pyridine-3-carboxamide] | 10 | > 10
Cc1cc(CNC(=O)c2ccc(CNS(=O)(=O)c3ccc(F)c(Cl)c3)nc2)n(C)n1 [6-(3-chloro-4-fluorobenzenesulfon-amidomethyl)-N-[(1,3-dimethyl-1H-pyrazol-5-yl)methyl]pyridine-3-carboxamide] | 10 | > 10
Cc1ccc(CNC(=O)c2ccc(CNS(=O)(=O)c3ccc(F)c(Cl)c3)nc2)n1C [6-(3-chloro-4-fluorobenzenesulfon-amidomethyl)-N-[(1,5-dimethyl-1H-pyrrol-2-yl)methyl]pyridine-3-carboxamide] | 10 | > 10

— US9963434B2, “N-arylmethyl sulfonamide negative modulators of NR2A” (LUC THERAPEUTICS, priority 2013, dated 2018)
